Source: patent publication US20250090493A1, “THERAPEUTIC COMPOSITION DELIVERY DEVICE” (Helios Cardio Inc., priority 2021, published 2025)

What was measured:
[1] = Amiodarone quantification in tissues by LC/MS after pericardial repair with amiodarone-soaked EBM patch, or IV amiodarone control, ovine model; format: in vivo; settings: sheep
Text: Specifically, EBM under the tradename CardiaMend™ was used. The device was approximately 1 mm thick (range 0.75-1.54 mm). An ovine model was used for a pericardial repair procedure. […] The EBM patch was then inserted through a hole cut through the pericardium via a mini-thoracotomy approach and secured with sutures at the margins of the pericardial defect. Following closure of the superficial muscle and skin, the animals were recovered, and housed until sacrifice at 3 days, 7 days, and 28 days. […] Following sacrifice, the repair site was explored, and the implant and heart were grossly evaluated for signs of inflammation, scarring, or fibrosis. Gross images were acquired.

[2] = as above; format: in vivo; settings: sheep, 1000 mg/day, Maximum IV delivery-positive control Average, 1,000 mg/day via IV for 14 days

- Amiodarone concentration, Myocardium, Day 3 Average ([1]; EBM 7 cm by 10 cm soaked in 6 mL of 50 mg/mL amiodarone hydrochloride, pericardial patch, myocardium, day 3): 63.50 µg/g
- Amiodarone concentration, Left Atrium, EBM drug delivery Day 3-7 Average ([1]; EBM drug delivery, local single dose, left atrium, day 3-7): 96 µg/g
- Amiodarone concentration, Liver, EBM drug delivery Day 3-7 Average ([1]; EBM drug delivery, local single dose, liver, day 3-7): 1 µg/g
- Amiodarone concentration, Lung, EBM drug delivery Day 3-7 Average ([1]; EBM drug delivery, local single dose, lung, day 3-7): 4 µg/g
- Amiodarone concentration, Right Atrium, EBM drug delivery Day 3-7 Average ([1]; EBM drug delivery, local single dose, right atrium, day 3-7): 83 µg/g
- Amiodarone concentration, Ventricles, EBM drug delivery Day 3-7 Average ([1]; EBM drug delivery, local single dose, ventricles, day 3-7): 14 µg/g
- Amiodarone concentration, Liver, Day 28 Average ([1]; amiodarone-soaked EBM pericardial patch, liver, day 28): below the limit of detection
- concentration at 14 day ([2]; left atrium): 19000 ng/g
- concentration at 14 day ([2]; liver): 8000 ng/g
- concentration at 14 day ([2]; lung): 27000 ng/g
- concentration at 14 day ([2]; right atrium): 33000 ng/g
- concentration at 14 day ([2]; ventricles): 9000 ng/g
SMILES: CCCCc1oc2ccccc2c1C(=O)c1cc(I)c(OCCN(CC)CC)c(I)c1 [Amiodarone, amiodarone]
